Measurements published in patent publication US8415469B2, “Compounds and methods for kinase modulation, and indications therefor” (Plexxikon Inc., priority 2005, dated 2013).
pIC50: −log10 of the molar value.

Assays:
Type in all cases: biochemical
[1] = biological target: Hck (Homo sapiens, UniProt P08631); assay: AlphaScreen kinase assay, Hck; settings: read-out: IC50, activity toward kinase Hck
From the text: (§1) AlphaScreen assay was used to screen additional kinases. The assay is similarly dependent on the phosphorylation of a peptide substrate. In this assay, an antibody that recognizes phosphorylated substrate is bound to an acceptor bead. The peptide substrate is attached to biotin, which binds to a donor head that contains streptavidin. Thus phosphorylated substrate is bound by antibody and streptavidin, bringing the donor and acceptor heads into close proximity when kinase is not inhibited. The donor produces singlet oxygen which results in emission from the acceptor when they are in close proximity. Conversely, when kinase is inhibited, the donor and acceptor beads are not associated and the emission from the acceptor is reduced.
(§2) AlphaScreen assays were done using compounds dissolved in DMSO to a concentration of 20 mM. The compounds were diluted accordingly to the desired final concentrations in each sample well, using 1:3 serial dilution for a total of 8 concentration points.

[2] = biological target: T1, Fak (Homo sapiens, UniProt Q05397); assay: AlphaScreen kinase assay, Fak; settings: read-out: IC50, activity toward kinase Fak
T1 construct: P1358.pFastBacHtb FAK S411-Q686-X; His6 with pFastBacHTb leader (TEV site) (N); made in house; host or cells: Sf9 (baculovirus)

[3] = biological target: T2, Fms (Homo sapiens, UniProt P07333); assay: AlphaScreen kinase assay, Fms; settings: read-out: IC50, activity toward kinase Fms
T2 construct: purchased Upstate Biotechnology

[4] = biological target: MAP4K4 (Homo sapiens, UniProt O95819); assay: AlphaScreen kinase assay, MAP4K4; settings: read-out: IC50, activity toward kinase MAP4K4
[5] = biological target: T3, c-Raf-1 (Homo sapiens, UniProt P04049); assay: AlphaScreen kinase assay, c-Raf-1; settings: read-out: IC50, activity toward kinase c-Raf-1
T3 construct: purchased Upstate Biotechnology

[6] = biological target: T4, Abl (Homo sapiens, UniProt P00519); assay: AlphaScreen kinase assay, Abl; settings: read-out: activity toward kinase Abl, IC50
T4 construct: P1121. pET-SPEC BI-PTP Abl G227-V515-X; His6 (N); made in house; host or cells: E. coli (PTP1B co-expressed)
T4 sequence (P00519 with tags, fused parts or gaps): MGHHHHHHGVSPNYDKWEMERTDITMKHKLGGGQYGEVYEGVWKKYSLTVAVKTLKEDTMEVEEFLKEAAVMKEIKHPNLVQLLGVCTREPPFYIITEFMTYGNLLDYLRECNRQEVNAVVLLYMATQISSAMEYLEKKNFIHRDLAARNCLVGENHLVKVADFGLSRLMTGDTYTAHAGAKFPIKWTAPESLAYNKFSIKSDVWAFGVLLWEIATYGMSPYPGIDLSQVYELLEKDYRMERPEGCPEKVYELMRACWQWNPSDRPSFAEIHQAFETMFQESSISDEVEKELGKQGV
Summary of the method: (§3)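 AlphaScreen, biotin-peptide substrate; streptavidin donor/anti-phospho acceptor beads; decreased emission = inhibition. Cpds 20 mM DMSO stock, 1:3 x 8 conc.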

[7] = biological target: T5, B-Raf V600E (Homo sapiens, UniProt P15056, V600E); assay: AlphaScreen kinase assay, B-Raf V600E; settings: read-out: IC50, activity toward kinase B-Raf V600E
T5 construct: P4254. pFastBacBD-CDC37 BRAF D437-K722-X, V600E; His6 with pFastBac HT leader (TEV site) (N); made in house; host or cells: Sf9 (baculovirus; chaperone CDC37 co-expressed)

[8] = biological target: Csk (Homo sapiens, UniProt P41240); assay: AlphaScreen kinase assay, Csk; settings: read-out: IC50, activity toward kinase Csk
From the text: as §1, §2

[9] = biological target: T6, B-Raf (Homo sapiens, UniProt P15056); assay: AlphaScreen kinase assay, B-Raf; settings: read-out: IC50, activity toward kinase B-Raf
T6 construct: purchased Upstate Biotechnology

[10] = biological target: T7, Src (Homo sapiens, UniProt P12931); assay: AlphaScreen kinase assay, Src; settings: read-out: IC50, activity toward kinase Src
T7 construct: P1144. pET-N6 BI-PTP SRC V86-L536-X; made in house

[11] = biological target: T8, Btk (Homo sapiens, UniProt Q06187); assay: Z'-Lyte FRET kinase assay (Invitrogen), Btk; settings: read-out: IC50, activity toward kinase Btk
T8 construct: purchased Invitrogen (assay run by Invitrogen)

[12] = biological target: Frk (Homo sapiens, UniProt P42685); assay: AlphaScreen kinase assay, Frk; settings: read-out: IC50, activity toward kinase Frk
From the text: as §1, §2

[13] = biological target: T9, FGFR1 (Homo sapiens, UniProt P11362, C488A/C584S); assay: AlphaScreen kinase assay, FGFR1; settings: read-out: IC50, activity toward kinase FGFR
T9 construct: P1351.pET N6 BI-PTP FGFR A458-E765-X C488A, C584S; made in house; host or cells: E. coli (PTP1B co-expressed)

[14] = biological target: T10, Kit (Homo sapiens, UniProt P10721); assay: AlphaScreen kinase assay, Kit; settings: read-out: IC50, activity toward kinase Kit
T10 construct: P1332.N6 BI PTP KIT M552-K948-X COD; His6 (N); made in house; host or cells: E. coli (PTP1B co-expressed)

[15] = biological target: T11, Stk6 (Homo sapiens, UniProt O14965); assay: Z'-Lyte FRET kinase assay (Invitrogen), Stk6; settings: read-out: IC50, activity toward kinase Stk6
T11 construct: purchased Invitrogen (Carlsbad, Calif.), screening service
T11 sequence (O14965 1-403): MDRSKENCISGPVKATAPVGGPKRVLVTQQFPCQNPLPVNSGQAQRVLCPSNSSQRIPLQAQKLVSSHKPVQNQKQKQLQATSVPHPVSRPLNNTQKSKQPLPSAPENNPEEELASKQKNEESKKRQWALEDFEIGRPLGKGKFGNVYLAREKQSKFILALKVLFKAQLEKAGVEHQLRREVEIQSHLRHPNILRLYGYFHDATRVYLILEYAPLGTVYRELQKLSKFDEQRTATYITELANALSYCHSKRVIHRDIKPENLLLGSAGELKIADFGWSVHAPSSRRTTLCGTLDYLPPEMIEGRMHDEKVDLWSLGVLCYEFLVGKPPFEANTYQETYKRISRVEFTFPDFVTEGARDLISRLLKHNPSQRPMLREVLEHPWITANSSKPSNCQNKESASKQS

[16] = biological target: PDGFRA (Homo sapiens, UniProt P16234); assay: AlphaScreen kinase assay, PDGFRA; settings: read-out: IC50, activity toward kinase PDGFRA
From the text: as §1, §2

[17] = biological target: Brk (Homo sapiens, UniProt Q13882); assay: AlphaScreen kinase assay, Brk; settings: read-out: IC50, activity toward kinase Brk
From the text: as §1, §2

[18] = biological target: T12, MAPKAPK2 (Homo sapiens, UniProt P49137); assay: Z'-Lyte FRET kinase assay (Invitrogen), MAPKAPK2; settings: read-out: IC50, activity toward kinase MAPKAPK2
T12 construct: purchased Invitrogen (assay run by Invitrogen)
From the text: The effect of potential modulators of kinase activity can be measured in a variety of different assays known in the art. For example, direct radiometric, indirect FRET or AlphaScreen assays may be used to assess the level of phosphorylation of a substrate in the presence of test compounds in order to determine the inhibitory affect of the compound on the kinase. Invitrogen (Carlsbad, Calif.) uses a FRET based assay for Btk, EGFR, EphB2, Flt3, lrak4, Kdr, MAP2K1, MAPKAPK2, PDGFRB, PKC theta, Stk6 and Yes. For these assays, compounds of the invention were screened by Invitrogen using Z′-Lyte™ kinase assay.
Briefly, the Invitrogen kinase assay involves use of a specific peptide substrate optimized for each kinase, containing a fluorophore at each end that make up the FRET pair. The peptide sensitivity to proteolytic cleavage depends on phosphorylation of the peptide. Non-phosphorylated peptide is cleaved by a protease while peptide phosphorylated by the kinase is not cleaved. Cleavage of the peptide disrupts the FRET between the donor (coumarin) and acceptor (fluorescein) fluorophores, resulting in an increase in the ratio of donor emission to acceptor emission. The emission ratio of coumarin to fluorescein is used to assess the reaction progress. The extent of phosphorylation is determined from the emission ratio, which is low when the kinase is active (phosphorylated peptide is not cleaved, FRET pair connected) or higher for inhibited kinase (non-phosphorylated peptide is cleaved, FRET pair separated). Thus, the assay involves a kinase reaction in the presence of varying concentrations of a given compound, a development reaction with site specific protease, and detection of the fluorescent emission ratio of coumarin and fluorscein. […] Reaction conditions for each kinase are determined to provide optimal reaction times, incubation temperature, kinase and ATP concentrations. Test samples are made up in 1× kinase buffer (50 mM HEPES pH 7.5, 50 mM MgCl2, 5 mM EGTA, 0.05% BRIJ-35) and compound at desired concentration prepared in DMSO such that the final DMSO is 1%. […] Typically, assay plates are prepared to 10 μl final volume per sample, adding 2.5 μl of compound at 4× the desired concentration in 4% DMSO (serial dilution of compound provides concentration curve), 5 μl of the desired kinase mixed with Z′-LYTE™ peptide substrate (2× in 2× kinase buffer, final peptide at 2 μM), and 2.5 μl of 4×ATP solution. All kinase except for MAP2K1 were at 10 μM ATP in the kinase reaction, while MAP2K1 was at 100 μM. Samples are mixed and the kinase reaction is incubated 1 hour at room temperature, after which 5 μl of development solution is added and mixed. After incubation for another 1 hour at room temperature, 5 μl of stop reagent is added to each sample and mixed. The fluorescence signals are measured to determine the emission ratio.

[19] = biological target: T13, Pyk2 (Homo sapiens, UniProt Q14289); assay: AlphaScreen kinase assay, Pyk2; settings: read-out: IC50, activity toward kinase Pyk2
T13 construct: purchased Upstate Biotechnology

[20] = biological target: T14, IKK beta (Homo sapiens, UniProt O14920); assay: AlphaScreen kinase assay, IKK beta; settings: read-out: IC50, activity toward kinase IKK beta
T14 sequence (O14920 1-756): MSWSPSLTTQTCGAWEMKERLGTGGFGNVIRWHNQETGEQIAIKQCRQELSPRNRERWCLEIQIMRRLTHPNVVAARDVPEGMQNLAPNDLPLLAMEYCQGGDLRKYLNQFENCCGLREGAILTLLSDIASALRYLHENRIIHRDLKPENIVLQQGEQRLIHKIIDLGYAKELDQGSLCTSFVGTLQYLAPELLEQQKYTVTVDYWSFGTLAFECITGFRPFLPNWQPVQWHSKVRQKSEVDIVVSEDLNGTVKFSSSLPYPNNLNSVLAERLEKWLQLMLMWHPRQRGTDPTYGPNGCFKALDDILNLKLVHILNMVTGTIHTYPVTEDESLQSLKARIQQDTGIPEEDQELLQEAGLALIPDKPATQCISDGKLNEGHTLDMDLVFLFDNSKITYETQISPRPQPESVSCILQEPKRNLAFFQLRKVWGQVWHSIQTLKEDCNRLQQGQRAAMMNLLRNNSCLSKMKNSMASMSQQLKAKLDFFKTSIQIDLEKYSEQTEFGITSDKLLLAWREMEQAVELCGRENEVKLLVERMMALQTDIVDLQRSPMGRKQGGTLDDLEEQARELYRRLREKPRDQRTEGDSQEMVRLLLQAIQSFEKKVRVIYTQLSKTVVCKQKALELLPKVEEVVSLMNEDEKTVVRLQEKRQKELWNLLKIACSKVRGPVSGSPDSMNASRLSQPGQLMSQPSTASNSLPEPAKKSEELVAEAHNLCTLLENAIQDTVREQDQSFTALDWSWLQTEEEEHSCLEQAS

[21] = biological target: T15, Kdr (Homo sapiens, UniProt P35968); assay: Z'-Lyte FRET kinase assay (Invitrogen), Kdr; settings: read-out: IC50, activity toward kinase Kdr
T15 construct: purchased Invitrogen (assay run by Invitrogen)

[22] = biological target: Gsk3β (Homo sapiens, UniProt P49841); assay: AlphaScreen kinase assay, Gsk3β; settings: read-out: IC50, activity toward kinase Gsk3β
Summary of the method: as §3

Sequence of Gsk3β (P49841 whole entry): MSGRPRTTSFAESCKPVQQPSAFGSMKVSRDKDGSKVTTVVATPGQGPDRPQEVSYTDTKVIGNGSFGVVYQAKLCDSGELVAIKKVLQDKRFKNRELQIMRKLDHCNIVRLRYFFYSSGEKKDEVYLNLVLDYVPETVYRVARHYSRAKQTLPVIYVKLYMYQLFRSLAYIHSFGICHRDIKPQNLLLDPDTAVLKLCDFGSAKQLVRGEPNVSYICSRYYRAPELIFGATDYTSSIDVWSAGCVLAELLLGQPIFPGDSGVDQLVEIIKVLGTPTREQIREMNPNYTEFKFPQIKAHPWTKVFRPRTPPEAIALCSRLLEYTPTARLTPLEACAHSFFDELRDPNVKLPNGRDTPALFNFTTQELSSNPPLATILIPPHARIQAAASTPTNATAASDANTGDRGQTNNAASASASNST
T10 sequence (P10721 with tags, fused parts or gaps): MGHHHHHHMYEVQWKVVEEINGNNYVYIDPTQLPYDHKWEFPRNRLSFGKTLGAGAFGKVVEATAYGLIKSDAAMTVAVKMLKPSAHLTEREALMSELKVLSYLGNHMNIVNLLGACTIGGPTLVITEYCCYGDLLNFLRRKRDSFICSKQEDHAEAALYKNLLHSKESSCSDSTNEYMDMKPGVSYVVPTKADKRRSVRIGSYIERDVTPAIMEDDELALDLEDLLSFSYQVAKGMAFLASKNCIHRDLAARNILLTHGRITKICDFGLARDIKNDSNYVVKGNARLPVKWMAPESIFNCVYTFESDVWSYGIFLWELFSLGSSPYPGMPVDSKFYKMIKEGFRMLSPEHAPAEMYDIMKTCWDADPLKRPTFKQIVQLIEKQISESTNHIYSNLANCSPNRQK
T12 sequence (P49137 whole entry): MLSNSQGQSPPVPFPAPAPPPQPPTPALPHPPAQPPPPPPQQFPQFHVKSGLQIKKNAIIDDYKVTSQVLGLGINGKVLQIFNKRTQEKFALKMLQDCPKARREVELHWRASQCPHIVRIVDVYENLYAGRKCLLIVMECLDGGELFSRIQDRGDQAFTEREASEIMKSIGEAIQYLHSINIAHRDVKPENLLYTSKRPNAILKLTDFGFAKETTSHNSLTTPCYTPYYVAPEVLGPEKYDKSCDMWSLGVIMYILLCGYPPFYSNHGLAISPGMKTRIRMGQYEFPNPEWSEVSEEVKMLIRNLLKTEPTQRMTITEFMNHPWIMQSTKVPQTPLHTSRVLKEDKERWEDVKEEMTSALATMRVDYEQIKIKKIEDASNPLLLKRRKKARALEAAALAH
Sequence of Brk (Q13882 whole entry): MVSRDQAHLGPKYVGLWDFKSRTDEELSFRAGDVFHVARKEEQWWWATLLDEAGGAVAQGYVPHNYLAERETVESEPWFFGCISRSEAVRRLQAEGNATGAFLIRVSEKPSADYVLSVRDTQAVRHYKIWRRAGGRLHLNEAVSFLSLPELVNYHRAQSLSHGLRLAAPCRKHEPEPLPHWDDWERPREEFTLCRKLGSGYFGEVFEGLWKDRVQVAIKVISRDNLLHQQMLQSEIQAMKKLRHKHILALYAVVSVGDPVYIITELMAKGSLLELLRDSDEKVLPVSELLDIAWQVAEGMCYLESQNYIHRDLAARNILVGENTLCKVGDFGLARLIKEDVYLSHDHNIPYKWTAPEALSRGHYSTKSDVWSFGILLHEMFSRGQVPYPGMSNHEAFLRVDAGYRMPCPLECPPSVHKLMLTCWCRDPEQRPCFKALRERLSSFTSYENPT
Sequence of Hck (P08631 whole entry): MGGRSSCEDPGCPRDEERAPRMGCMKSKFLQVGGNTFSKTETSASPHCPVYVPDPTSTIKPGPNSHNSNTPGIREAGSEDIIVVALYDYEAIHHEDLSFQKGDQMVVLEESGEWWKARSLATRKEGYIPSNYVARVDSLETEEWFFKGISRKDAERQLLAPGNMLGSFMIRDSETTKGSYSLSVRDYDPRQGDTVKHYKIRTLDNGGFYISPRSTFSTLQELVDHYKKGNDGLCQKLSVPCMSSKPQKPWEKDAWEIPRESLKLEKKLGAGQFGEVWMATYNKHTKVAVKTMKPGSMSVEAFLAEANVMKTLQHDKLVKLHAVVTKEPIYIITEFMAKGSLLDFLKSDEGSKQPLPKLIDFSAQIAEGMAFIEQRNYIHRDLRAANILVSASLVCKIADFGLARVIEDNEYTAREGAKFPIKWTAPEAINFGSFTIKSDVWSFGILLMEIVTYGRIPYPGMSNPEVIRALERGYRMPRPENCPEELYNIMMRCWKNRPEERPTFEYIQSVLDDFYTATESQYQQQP
T7 sequence (P12931 with tags, fused parts or gaps): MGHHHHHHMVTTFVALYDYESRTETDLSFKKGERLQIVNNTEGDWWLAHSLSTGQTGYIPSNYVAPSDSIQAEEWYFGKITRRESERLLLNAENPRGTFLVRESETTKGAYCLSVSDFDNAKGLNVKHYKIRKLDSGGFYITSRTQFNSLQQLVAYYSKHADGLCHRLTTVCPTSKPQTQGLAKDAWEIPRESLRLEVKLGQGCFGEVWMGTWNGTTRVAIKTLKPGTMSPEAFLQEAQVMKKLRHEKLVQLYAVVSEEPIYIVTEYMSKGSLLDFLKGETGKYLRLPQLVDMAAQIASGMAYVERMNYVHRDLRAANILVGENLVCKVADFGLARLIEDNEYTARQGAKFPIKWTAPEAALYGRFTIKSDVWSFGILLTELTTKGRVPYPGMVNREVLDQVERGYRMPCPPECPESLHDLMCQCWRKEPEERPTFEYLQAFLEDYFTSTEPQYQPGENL
T1 sequence (Q05397 411-686): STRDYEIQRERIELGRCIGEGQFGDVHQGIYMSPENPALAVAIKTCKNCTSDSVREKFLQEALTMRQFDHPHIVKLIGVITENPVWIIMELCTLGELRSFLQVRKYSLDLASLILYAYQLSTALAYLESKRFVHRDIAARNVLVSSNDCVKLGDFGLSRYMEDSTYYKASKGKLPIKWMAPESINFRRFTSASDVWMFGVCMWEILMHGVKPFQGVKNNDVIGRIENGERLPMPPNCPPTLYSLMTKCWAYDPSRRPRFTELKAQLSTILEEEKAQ
T9 sequence (P11362 458-765 C488A/C584S): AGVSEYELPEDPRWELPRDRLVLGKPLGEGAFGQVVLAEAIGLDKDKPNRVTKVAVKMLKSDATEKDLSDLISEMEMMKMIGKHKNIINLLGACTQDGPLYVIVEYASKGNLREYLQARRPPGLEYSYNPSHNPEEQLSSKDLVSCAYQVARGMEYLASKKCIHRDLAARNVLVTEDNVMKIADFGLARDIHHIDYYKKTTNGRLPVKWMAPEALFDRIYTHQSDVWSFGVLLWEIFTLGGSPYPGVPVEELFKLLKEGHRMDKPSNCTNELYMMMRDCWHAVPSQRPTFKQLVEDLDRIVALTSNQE
Sequence of PDGFRA (P16234 24-1089): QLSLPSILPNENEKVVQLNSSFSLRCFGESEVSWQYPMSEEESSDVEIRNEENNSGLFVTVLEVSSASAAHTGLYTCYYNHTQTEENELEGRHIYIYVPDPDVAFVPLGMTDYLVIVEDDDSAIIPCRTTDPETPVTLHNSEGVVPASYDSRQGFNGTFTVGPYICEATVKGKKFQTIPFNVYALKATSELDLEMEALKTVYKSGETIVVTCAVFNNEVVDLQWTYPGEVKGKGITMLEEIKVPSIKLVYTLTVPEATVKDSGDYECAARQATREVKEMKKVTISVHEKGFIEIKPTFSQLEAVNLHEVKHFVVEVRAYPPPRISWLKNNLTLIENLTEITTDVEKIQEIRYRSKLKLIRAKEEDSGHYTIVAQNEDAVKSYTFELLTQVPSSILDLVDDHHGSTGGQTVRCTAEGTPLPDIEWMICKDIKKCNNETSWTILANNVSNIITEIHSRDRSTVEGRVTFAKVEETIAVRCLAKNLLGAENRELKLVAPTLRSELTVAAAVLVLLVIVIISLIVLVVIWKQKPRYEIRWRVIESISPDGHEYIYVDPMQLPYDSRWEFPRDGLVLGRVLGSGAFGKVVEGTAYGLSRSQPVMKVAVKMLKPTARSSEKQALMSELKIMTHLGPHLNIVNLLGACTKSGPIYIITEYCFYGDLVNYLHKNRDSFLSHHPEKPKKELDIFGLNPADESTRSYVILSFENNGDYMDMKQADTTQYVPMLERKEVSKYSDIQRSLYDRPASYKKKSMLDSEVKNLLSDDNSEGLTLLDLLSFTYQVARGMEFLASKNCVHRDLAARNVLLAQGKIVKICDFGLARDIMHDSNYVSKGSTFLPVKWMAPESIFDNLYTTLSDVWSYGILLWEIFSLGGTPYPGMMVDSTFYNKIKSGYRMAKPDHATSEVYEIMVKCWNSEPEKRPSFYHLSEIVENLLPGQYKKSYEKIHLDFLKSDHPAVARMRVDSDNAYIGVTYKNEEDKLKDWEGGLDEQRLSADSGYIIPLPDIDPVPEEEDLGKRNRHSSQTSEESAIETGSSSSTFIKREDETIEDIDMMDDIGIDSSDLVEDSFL
Sequence of Frk (P42685 whole entry): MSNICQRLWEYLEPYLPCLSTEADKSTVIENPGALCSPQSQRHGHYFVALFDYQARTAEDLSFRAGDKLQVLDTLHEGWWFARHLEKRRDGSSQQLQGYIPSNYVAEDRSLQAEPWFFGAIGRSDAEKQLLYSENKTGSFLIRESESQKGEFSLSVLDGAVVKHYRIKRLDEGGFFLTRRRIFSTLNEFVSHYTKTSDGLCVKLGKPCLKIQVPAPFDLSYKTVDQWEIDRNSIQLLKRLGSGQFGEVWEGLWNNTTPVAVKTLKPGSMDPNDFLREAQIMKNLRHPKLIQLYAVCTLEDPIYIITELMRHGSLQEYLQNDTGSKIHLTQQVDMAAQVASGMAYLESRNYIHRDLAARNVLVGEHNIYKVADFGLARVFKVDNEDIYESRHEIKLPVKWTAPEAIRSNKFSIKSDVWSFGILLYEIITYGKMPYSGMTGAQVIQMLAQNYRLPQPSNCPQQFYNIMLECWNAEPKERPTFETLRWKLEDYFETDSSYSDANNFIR

pIC50 [1]	pIC50 [2]	pIC50 [4]	pIC50 [8]	pIC50 [10]	pIC50 [12]	pIC50 [13]	pIC50 [14]	pIC50 [15]	pIC50 [16]	pIC50 [17]	pIC50 [18]	pIC50 [21]	pIC50 [22]	SMILES	further results
≥ 5.00	≥ 5.00	≥ 5.00	≥ 5.00	≥ 5.00	≥ 5.00	≥ 5.00	≥ 5.00	≥ 5.00	≥ 5.00	≥ 5.00				O=C(c1c(F)ccc(NS(=O)(=O)c2ccccc2)c1F)c1c[nH]c2ncc(Cl)cc12 [Compound P-0885, N-[3-(5-Chloro-1H-pyrrolo[2,3-b]pyridine-3-carbonyl)-2,4-difluorophenyl]-benzenesulfonamide]	pIC50 [3]: ≥ 5.00; pIC50 [5]: ≥ 5.00; pIC50 [6]: ≥ 5.00; pIC50 [7]: ≥ 5.00; pIC50 [9]: ≥ 5.00; pIC50 [11]: ≥ 5.00
≥ 5.00	≥ 5.00	≥ 5.00	≥ 5.00	≥ 5.00	≥ 5.00	≥ 5.00	≥ 5.00	≥ 5.00	≥ 5.00	≥ 5.00				CCCS(=O)(=O)Nc1ccc(F)c(C(=O)c2c[nH]c3ncc(Cl)cc23)c1F [Compound P-0933, Propane-1-sulfonic acid [3-(5-chloro-1H-pyrrolo[2,3-b]pyridine-3-carbonyl)-2,4-difluoro-phenyl]-amide]	

Further lines, the compound ahead of its results:

SMILES	pIC50 [1]	pIC50 [2]	pIC50 [4]	pIC50 [8]	pIC50 [10]	pIC50 [12]	pIC50 [13]	pIC50 [14]	pIC50 [15]	pIC50 [16]	pIC50 [17]	pIC50 [18]	pIC50 [21]	pIC50 [22]	further results
O=C(O)c1ccc(Sc2c[nH]c3ncccc23)nc1 [Compound P-0086]								≥ 5.00	≥ 5.00			≥ 5.00	≥ 5.00	≥ 5.00	pIC50 [19]: ≥ 5.00; pIC50 [20]: ≥ 5.00
FC(F)(F)c1cccc(-c2ccnc3[nH]cc(Sc4ccncc4)c23)c1 [Compound P-0226]												≥ 5.00	≥ 5.00	≥ 5.00	
Cc1cccc(-c2ccnc3[nH]cc(Sc4cccs4)c23)c1 [Compound P-0104]									≥ 5.00			≥ 5.00		≥ 5.00	
